Measurements published in patent publication US10517889B2, “Modulators of SMAD7 expression” (Ionis Pharmaceuticals, Inc., priority 2017, dated 2019).
Where “and” joins values, the source holds several entries; their conditions need not be identical. Equal entries are not always repeated. Strand notation (5' to 3'): a small letter for the sugar, then the base; units joined by * are phosphorothioate-linked, units joined directly phosphodiester-linked; [ ] holds rarer units or linkages, { } end groups; capitals alone tell only the bases. k = constrained ethyl (cEt); [5mC] = 5-methylcytosine; d = 2'-deoxy (DNA)

Legend:
[1] = tested on: human SMAD7 mRNA; assay: Antisense inhibition of human SMAD7 mRNA expression in Hep3B cells by 3-10-3 cEt gapmers, 10,000 nM, electroporation (Example 2); format: cell-based; conditions: approximately 24 hours
How it was run: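 SMAD7 mRNA was measured by real-time PCR (RTS5062) with RiboGreen total-RNA normalization, about 24 h after 10,000 nM gapmer was delivered by electroporation into Hep3B cells at 20,000 per well. Gapmers were 16-mer 3-10-3 cEt, fully phosphorothioate; values are % inhibition versus untreated controls.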

[2] = tested on: human SMAD7 mRNA; assay: Dose-dependent inhibition of human SMAD7 mRNA expression in Hep3B cells (Example 3, Study 1 and 2); format: cell-based; conditions: electroporation; for % inhibition of SMAD7 mRNA expression: approximately 16 hours; for IC50: Study 2 (740-20000 nM)
How it was run: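 Hep3B cells, 20,000 per well, electroporated with antisense oligonucleotide at 0.31, 1.25, 5.00 or 20.00 μM (first series) or 0.74, 2.22, 6.67 or 20.00 μM (second series). After ~16 h, SMAD7 mRNA measured by RT-qPCR (RTS5062), normalised to RIBOGREEN total RNA. Percent inhibition vs untreated cells; IC50 derived.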

[3] = Hep3B cells, electroporation with 10,000 nM antisense oligonucleotide, primer probe set RTS5062, relative to untreated control cells
[4] = SMAD7 mRNA, Hep3B cells, 10,000 nM antisense oligonucleotide, electroporation, primer probe set RTS5062, relative to untreated control cells
[5] = 740 nM, Study 2, relative to untreated control cells
[6] = Hep3B cells, electroporation with 10,000 nM antisense oligonucleotide, SMAD7 mRNA by RT-PCR (RTS5062), relative to untreated control cells
[7] = Hep3B cells, electroporation with 10,000 nM antisense oligonucleotide, RTS5062, percent inhibition of SMAD7 mRNA relative to untreated control cells

Row | Substance | % inhibition of SMAD7 mRNA expression [1, 3] [%] | % Inhibition [1, 4] [%] | % inhibition of SMAD7 mRNA expression [2, 5] [%] | % inhibition of SMAD7 mRNA expression ([2]; 2220 nM, Study 2) [%] | % inhibition of SMAD7 mRNA expression ([2]; 6670.0 nM, Study 2) | % inhibition of SMAD7 mRNA expression ([2]; 20000.0 nM, Study 2) | IC50 [2] [µM] | % Inhibition [1, 6] [%] | % inhibition of SMAD7 mRNA expression ([1]; Hep3B cells, electroporation, 10,000 nM antisense oligonucleotide, RTS5062, relative to untreated control cells) [%] | % Inhibition ([1]; SMAD7 mRNA, Hep3B cells, electroporation with 10,000 nM antisense oligonucleotide, primer probe set RTS5062, relative to untreated control cells) [%] | % Inhibition [1, 7] [%]
1 | 799143 (antisense kT*kG*kG*dG*dT*dT*dA*dT*dG*dA*d[5mC]*dG*dG*kA*k[5mC]*k[5mC]) [compound 799143] | 66 | 61 | 87 | 93 | 95% | 96% | 2 |  |  |  | 
2 | 798662 (kG*k[5mC]*kT*d[5mC]*d[5mC]*dG*dG*d[5mC]*dT*dG*d[5mC]*d[5mC]*d[5mC]*k[5mC]*kA*k[5mC]; antisense) [compound 798662] | 62 |  | 0 | 28 | 22% | 25% | > 20 |  |  |  | 
3 | 830170 (antisense kG*k[5mC]*kT*d[5mC]*dT*dG*dT*dT*dT*dG*dG*dA*d[5mC]*kA*kA*kG) [compound 830170] |  |  | 1 | 39 | 54% | 67% | 6 | 60 |  |  | 
4 | 798764 (kA*k[5mC]*kT*dT*dT*dG*d[5mC]*dA*d[5mC]*dA*dG*d[5mC]*dA*kG*kG*kA; antisense) [compound 798764] | 69 | 75 |  |  | 57% and 72% and 54% | 93% and 87% and 65% and 83% | 1 |  |  |  | 
5 | 790616 (k[5mC]*kT*kA*dA*dA*dT*dT*dT*d[5mC]*d[5mC]*dA*dA*dT*kG*kA*kG; antisense) [compound 790616] |  | 66 | 0 | 8 | 26% | 65% | 13 |  |  |  | 
6 | 799755 (antisense kG*kA*kA*dA*dG*dT*dT*dA*d[5mC]*dA*dG*dA*dA*k[5mC]*kT*k[5mC]) [compound 799755] |  |  | 13 | 44 | 66% | 75% | 6 |  | 77 |  | 
7 | 829956 (k[5mC]*k[5mC]*kT*dT*dG*dT*d[5mC]*dA*d[5mC]*d[5mC]*d[5mC]*dG*dT*k[5mC]*kT*kG; antisense) [compound 829956] |  |  | 65 | 82 | 89% | 95% | 1 |  |  | 66 | 
8 | 799067 (antisense kG*kG*kA*dT*dG*dA*dA*dA*dA*dT*dA*dA*dT*kT*kG*kG) [compound 799067] | 74 |  | 5 | 55 | 63% | 78% | 9 |  |  |  | 
9 | 830122 (kG*kA*kG*dA*dA*dT*d[5mC]*dA*dA*dG*d[5mC]*d[5mC]*d[5mC]*kT*kG*kG; antisense) [compound 830122] |  |  | 28 | 54 | 66% | 74% | 3 | 57 |  |  | 
10 | 772858 (kA*kG*kT*dG*dT*dT*d[5mC]*dA*dA*d[5mC]*dA*dA*dT*kG*k[5mC]*kT; antisense) [compound 772858] |  | 62 | 7 | 26 | 29% | 51% | > 20 |  |  |  | 
11 | 799572 (kA*k[5mC]*k[5mC]*dA*dT*d[5mC]*dT*dA*dA*d[5mC]*dA*dA*d[5mC]*kA*kT*k[5mC]; antisense) [compound 799572] |  | 55 | 0 | 35 | 62% | 66% | 1 |  |  |  | 79
12 | 799667 (antisense kA*k[5mC]*kA*dG*dA*dT*dG*d[5mC]*d[5mC]*dA*dG*d[5mC]*dA*kA*kG*kG) [compound 799667] |  |  | 8 | 8 | 17% | 47% | 9 |  |  |  | 79
